Test results from US7803399B2, “Delivery system for nucleic acids” (The Scripps Research Institute, priority 2001, dated 2010).
Read-outs that look alike come from different tables or passages of the source.

System: αvβ3 positive M21 Melanoma cells
Test: Cell adhesion inhibition assay on vitronectin coated plates
Assay type: cell-based
Settings: Homo sapiens

IC50 (FIG. 9, M21 cells on vitronectin, read-out: IC50 cell adhesion (FIG. 9), antagonist alone): 500 µM
IC50 (M21 cells on vitronectin coated plates, monomeric ligand, read-out: IC50 for inhibition of cell adhesion, free ligand): 64 µM
SMILES: NCCS(=O)(=O)N[C@@H](CNC(=O)c1ccc(OCCNC2=NCCCN2)cc1)C(=O)O [Liposome 10, 4-[2-(3,4,5,6-Tetrahydropyrimidin-2-ylamino)ethyloxy]benzoyl-2-(S)-aminoethylsulfonamido-β-alanine]
